Among the test systems are SK-OV-3 ovarian; OVCAR-4 ovarian; HT29 colon; HOP-62 NSCLC; HCT-116 colon; UACC-257 melanoma; A549 NSCLC; SNB-19 CNS; OVCAR-3 ovarian; CCRF-CEM leukemia.
What all share (assay): growth of human tumour cells (NCI), 48 h

The text below walks through data of PubChem BioAssay (NCI).

Molecules are shown by their SMILES. Values joined by “and” are separate entries in the source; they are usually repeats but may differ in a detail not shown here. Identical values can stand only once.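 How tested: cells in 96-well plates exposed to compound for 48 hours at five concentrations. At the GI50, growth is halved. The concentration for full growth arrest is given as TGI.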

On to `O=C(NC[C@H](O)CO)c1ccncc1Nc1ccc(I)cc1F`, for which the GI50 is > 4.46 µM and 26.2 µM with SK-OV-3 ovarian; > 7.46 µM and 10.6 µM with OVCAR-4 ovarian; 0.00409 µM and < 0.011 µM with HT29 colon; 0.0472 µM and 0.298 µM with HOP-62 NSCLC; 0.0556 µM and 0.104 µM with HCT-116 colon; 0.00359 µM and < 0.01 µM in the test with UACC-257 melanoma. Further, the GI50 with A549 NSCLC is 0.694 µM and 1.79 µM; in the test with SNB-19 CNS, > 10 µM and 21.2 µM; in the test on OVCAR-3 ovarian, > 10 µM and 20.1 µM; in the test on CCRF-CEM leukemia, over 100 µM. In addition, the TGI was over 100 µM in the test on SK-OV-3 ovarian; over 100 µM in the test with OVCAR-4 ovarian; over 38.7 µM in the test on HT29 colon; over 94 µM in the test on HOP-62 NSCLC; over 100 µM in the test with HCT-116 colon; 0.0403 µM and 0.0438 µM in the test with UACC-257 melanoma. Moreover, the TGI with A549 NSCLC is over 75.8 µM; in the test with SNB-19 CNS, over 100 µM; in the test on OVCAR-3 ovarian, over 100 µM; in the test on CCRF-CEM leukemia, over 100 µM.
For `C1CN(SSN2CCOCC2)CCO1`, the GI50 in the test on SK-OV-3 ovarian is over 100 µM; in the test on OVCAR-4 ovarian, 39.6 µM; with HT29 colon it was 19.9 µM; in the test with HOP-62 NSCLC, 78.5 µM; in the test on HCT-116 colon, 20 µM; with UACC-257 melanoma, 62.8 µM. Further, the GI50 was 78.6 µM in the test with A549 NSCLC, over 100 µM in the test on SNB-19 CNS, 32.3 µM in the test on OVCAR-3 ovarian and 43.9 µM in the test with CCRF-CEM leukemia. For the same molecule, the TGI was over 100 µM with SK-OV-3 ovarian; over 100 µM in the test on OVCAR-4 ovarian; 43.1 µM in the test on HT29 colon; over 100 µM in the test with HOP-62 NSCLC; 40.6 µM in the test with HCT-116 colon; over 100 µM with UACC-257 melanoma. Moreover, the TGI is over 100 µM in the test on A549 NSCLC, over 100 µM in the test with SNB-19 CNS, 89.2 µM in the test on OVCAR-3 ovarian and over 100 µM in the test with CCRF-CEM leukemia.
In the case of `COc1c2c(nc3ccccc13)-c1cc3c(c(=O)n1C2)COC(=O)C3(O)CC(=O)N1CCOCC1` (stereo not given), the TGI in the test with SK-OV-3 ovarian is 68.3 µM; in the test with OVCAR-4 ovarian, over 100 µM; with HT29 colon, 68 µM; in the test on HOP-62 NSCLC it was 20.7 µM; in the test on HCT-116 colon it was 38.5 µM; with UACC-257 melanoma it was 98.4 µM. Also, the TGI with A549 NSCLC was over 92.4 µM; in the test with SNB-19 CNS, 83.6 µM; in the test on OVCAR-3 ovarian, 55 µM; in the test with CCRF-CEM leukemia, 3.95 µM.
As to `O=C(Nc1ccc(Cl)c(Cl)c1)O/N=C\c1c(Cl)ccc([N+](=O)[O-])c1Cl`, the GI50 was 5.82 µM in the test on SK-OV-3 ovarian; 1.74 µM with OVCAR-4 ovarian; 1.91 µM in the test with HT29 colon; 3.07 µM with HOP-62 NSCLC; 1.49 µM in the test with HCT-116 colon; 1.46 µM in the test with UACC-257 melanoma. The GI50 was 2.96 µM in the test on A549 NSCLC, 7.6 µM in the test with SNB-19 CNS, 1.31 µM in the test with OVCAR-3 ovarian and 1.88 µM in the test with CCRF-CEM leukemia. The TGI stood at 17.6 µM with SK-OV-3 ovarian; 3.14 µM with OVCAR-4 ovarian; 3.53 µM in the test on HT29 colon; 11 µM in the test on HOP-62 NSCLC; 3.25 µM in the test on HCT-116 colon; 2.86 µM in the test on UACC-257 melanoma. The TGI is 10.3 µM in the test with A549 NSCLC, 20.6 µM in the test with SNB-19 CNS, 2.76 µM in the test with OVCAR-3 ovarian and 5.1 µM in the test with CCRF-CEM leukemia.
`O=C(/C=C/c1ccc([N+](=O)[O-])cc1)c1ccc2c3c(cccc13)CC2`: the GI50 in the test on SK-OV-3 ovarian is 33.1 µM; in the test on OVCAR-4 ovarian it was 13.5 µM; in the test on HT29 colon, 5.05 µM; in the test with HOP-62 NSCLC, 11.4 µM; in the test on HCT-116 colon, 4.33 µM; in the test on UACC-257 melanoma it was over 46 µM. Besides, the GI50 with A549 NSCLC was 10.3 µM; with SNB-19 CNS it was 3.36 µM; in the test with OVCAR-3 ovarian, 3 µM; in the test on CCRF-CEM leukemia, 5.21 µM. Also, the TGI was over 91.3 µM with SK-OV-3 ovarian; over 100 µM in the test with OVCAR-4 ovarian; over 100 µM in the test on HT29 colon; over 81.9 µM in the test on HOP-62 NSCLC; 25.7 µM in the test on HCT-116 colon; over 94.4 µM in the test on UACC-257 melanoma. For the same molecule, the TGI is over 100 µM with A549 NSCLC, 17.4 µM with SNB-19 CNS, 10.1 µM in the test on OVCAR-3 ovarian and over 100 µM in the test with CCRF-CEM leukemia.
For `CC(C)c1cccc2sc(NC(=O)C(=O)C(C#N)c3cccc4ccccc34)nc12` (stereo not given), the TGI with SK-OV-3 ovarian, in the test on OVCAR-4 ovarian, in the test with HT29 colon, in the test on HOP-62 NSCLC, in the test with HCT-116 colon and in the test with UACC-257 melanoma was over 100 µM throughout. The TGI in the test with A549 NSCLC, in the test with SNB-19 CNS, in the test on OVCAR-3 ovarian and in the test with CCRF-CEM leukemia was over 100 µM each time.
For the molecule `Nc1nc(Nc2ccc(C3CCC(N4CCOCC4)CC3)cc2)nn1-c1ccccn1` (stereo not given), the GI50 is 18.1 µM in the test on SK-OV-3 ovarian; 12.4 µM in the test with OVCAR-4 ovarian; 3.11 µM in the test with HT29 colon; 3.04 µM with HOP-62 NSCLC; 2.92 µM in the test with HCT-116 colon; 3.43 µM in the test on UACC-257 melanoma. In addition, the GI50 in the test with A549 NSCLC is 4.08 µM; in the test on SNB-19 CNS, 7.38 µM; in the test with OVCAR-3 ovarian, 9.86 µM; in the test with CCRF-CEM leukemia it was 3.25 µM. The TGI in the test on SK-OV-3 ovarian was over 100 µM; with OVCAR-4 ovarian, over 84.9 µM; in the test on HT29 colon it was over 100 µM; in the test with HOP-62 NSCLC it was over 68.4 µM; in the test with HCT-116 colon, 20.7 µM; with UACC-257 melanoma, 12.2 µM. Besides, the TGI in the test with A549 NSCLC was over 100 µM; in the test on SNB-19 CNS, over 100 µM; in the test on OVCAR-3 ovarian, 44.6 µM; in the test with CCRF-CEM leukemia, 55.9 µM.
With `CCSCCCN(CCCSCC)CCCSCC`, the TGI in the test with SK-OV-3 ovarian, in the test on OVCAR-4 ovarian, in the test on HT29 colon, with HOP-62 NSCLC, in the test on HCT-116 colon and with UACC-257 melanoma was over 100 µM in each case. In addition, the TGI with A549 NSCLC, with SNB-19 CNS, with OVCAR-3 ovarian and with CCRF-CEM leukemia was over 100 µM in each case.
For the molecule `COC(=O)CCC(NC(=S)N/N=C/c1ccco1)C(=O)OC` (stereo not given), the TGI in the test with SK-OV-3 ovarian, in the test on OVCAR-4 ovarian, in the test on HT29 colon, with HOP-62 NSCLC, with HCT-116 colon and in the test with UACC-257 melanoma was over 100 µM in each case. Further, the TGI in the test on A549 NSCLC, in the test with SNB-19 CNS, with OVCAR-3 ovarian and in the test with CCRF-CEM leukemia was over 100 µM each time.
`C[C@]12CCC3[C@@H](CC[C@@H]4c5nonc5CC[C@]34C)C1C/C(=N/O)C2=O` (stereo not given in full): the TGI in the test with SK-OV-3 ovarian, in the test on OVCAR-4 ovarian, with HT29 colon, with HOP-62 NSCLC, in the test on HCT-116 colon and in the test with UACC-257 melanoma was over 100 µM throughout. The TGI in the test with A549 NSCLC, in the test on SNB-19 CNS, in the test on OVCAR-3 ovarian and with CCRF-CEM leukemia was over 100 µM throughout.
